According to patent publication US11828750B2, “Material for screening for compound acting on ION channel and use thereof” (PUBLIC UNIVERSITY CORPORATION NAGOYA CITY UNIVERSITY, priority 2016, dated 2023):

How the values were obtained:
TASK-1 = TASK-1 (Homo sapiens, UniProt O14649); conditions: Zou et al. 2010; read-out: reported IC50 for TASK-1; cited from earlier work
hTASK-1 = assay: Cell death assay in TASK-1 test cells (hTASK-1 transiently expressing Kir 2.1#mutated Nav cells); assay type: cell-based, human
Description: With the TREK-1 test cells, the culture medium was replaced with measurement buffer (137 mM NaCl, 5.9 mM KCl, 2.2 mM CaCl2, 1.2 mM MgCl2, 14 mM glucose, 10 mM HEPES (pH 7.4 with NaOH), this also applies in the following) and BaCl2 was added to provide 200 μM Ba ion, a Kir 2.1 inhibitor. This was followed by incubation for approximately 12 hours under conditions of 37° C., atmospheric pressure, and 5% CO2 and monitoring of cell death. […] The measurement of cell death was carried out using the MTT method with reference to a paper by the present inventors (Yamazaki, D., et al., Am J Physiol Cell Physiol 300, C75-86, 2011).
hTASK-1 (the Δi20 mutant was used due to poor transfer to the cell membrane by the wild type, resulting in the problems of a small current and measurement difficulties. This mutant is reported to readily transfer to the membrane. Renigunta et al., Traffic 7:168-181, 2006) and hTASK-3 (GenBank Accession Number: NM #001282534), which are types of human-derived K2P channels, were subcloned in a baculovirus vector, a viral vector, and were inserted into the Kir 2.1 #mutated Nav cells prepared in Second Embodiment to prepare hTASK-1 transiently expressing TASK-1#Kir 2.1 #mutated Nav cells and hTASK-3 transiently expressing hTASK-3#Kir 2.1 #mutated Nav cells (referred to herebelow as TASK-1 test cells and TASK-3 test cells), respectively, which transiently expressed hTASK-1 and hTASK-3. Sf-900 III SFM (Thermo Fisher Scientific) was used for the culture medium for baculovirus vector production, and Dulbecco's Modified Eagle Medium (D-MEM) culture medium supplemented with 10% fetal bovine serum (FBS) was used as the culture medium for the test cells.
For TASK-3 this was the same as the literature value of 35 nM (Coburn et al., Chem Med Chem., 7(1), 123-33, 2012).

hSK2 = biological target: T1, hSK2 (Homo sapiens, UniProt Q9H2S1); assay: Cell death assay in SK2 test cells (Kir 2.1+IFM/QQQ+SK2 cells); assay type: cell-based
T1 construct: expressed in transfected cells; host or cells: HEK293 Kir 2.1 + mutated Nav cells, transient expression via baculovirus vector
Text: (§1) hSK2 and hSK4, which are each one type of human-derived Ca ion-activated ion channel, were respectively subcloned in a baculovirus vector, which is a viral vector, and were inserted into the Kir 2.1 #mutated Nav cells prepared in Second Embodiment to prepare hSK2 transiently expressing Kir 2.1+IFM/QQQ+SK2 cells (referred to herebelow as SK2 test cells) and hSK4 transiently expressing Kir 2.1+IFM/QQQ+SK4 cells (referred to herebelow as SK4 test cells). Sf-900 III SFM (Thermo Fisher Scientific) was used for the culture medium for baculovirus vector production, and Dulbecco's Modified Eagle Medium (D-MEM) culture medium supplemented with 10% fetal bovine serum (FBS) was used as the culture medium for the test cells.

hTREK-1 = biological target: T2, hTREK-1 (Homo sapiens, UniProt O95069); assay: Cell death assay (MTT method) in TREK-1 test cells (hTREK-1#Kir 2.1#mutated Nav HEK293 cells); assay type: cell-based; conditions: 37° C.
T2 construct: expressed in transfected cells; host or cells: HEK293 cells stably expressing Kir 2.1 and Nav 1.5 IFM/QQQ; hTREK-1 in pcDNA3.1(+)
T2 sequence (O95069 1-422 isoform O95069-3): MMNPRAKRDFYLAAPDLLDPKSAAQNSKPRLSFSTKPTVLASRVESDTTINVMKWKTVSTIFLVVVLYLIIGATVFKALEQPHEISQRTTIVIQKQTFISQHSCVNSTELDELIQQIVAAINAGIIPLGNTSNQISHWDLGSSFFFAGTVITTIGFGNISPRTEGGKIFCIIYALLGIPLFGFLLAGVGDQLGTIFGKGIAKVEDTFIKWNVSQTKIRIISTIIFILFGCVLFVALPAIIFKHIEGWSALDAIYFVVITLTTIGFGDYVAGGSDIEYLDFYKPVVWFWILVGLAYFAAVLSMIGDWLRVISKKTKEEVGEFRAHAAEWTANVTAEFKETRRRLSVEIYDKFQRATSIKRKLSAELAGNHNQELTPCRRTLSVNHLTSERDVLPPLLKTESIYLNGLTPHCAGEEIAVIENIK
Description: (Cell Culture and Gene Insertion) Human-derived embryonic kidney cells (HEK293 cells) were purchased from the Health Sciences Research Resource Bank (HSRRB). 10% fetal bovine serum (FBS, Gibco Corp.) was added thereto followed by culturing at 37° C. in 5% CO2 in Dulbecco's Modified Eagle Medium (D-MEM, Wako Pure Chemical Industries, Ltd.) containing 100 U/ml penicillin (Wako Pure Chemical Industries, Ltd.) and 100 μg/ml streptomycin (Meiji Seika Kaisha, Ltd.). pcDNA3.1/Kir 2.1, obtained by subcloning human-derived Kir 2.1 (NM #000891) in pcDNA3.1(+) (Invitrogen Corp.), was inserted using Lipofectamine 2000 (Invitrogen Corp.) followed by culturing in medium obtained by adding 0.2 mg/ml Zeocin (Invitrogen Corp.) to the above-mentioned D-MEM medium and then cloning Zeocin resistant cells to prepare Kir 2.1 constantly expressing cells (HEK#Kir). In addition, the deactivation mutant Nav 1.5 IFM/QQQ was inserted into the Kir 2.1 constantly expressing cells using the same method (HEK#Kir#mutated Nav).
Proceeding as above, hTREK-1#Kir 2.1 #mutated Nay cells (referred to herebelow as TREK-1 test cells) were prepared by subcloning hTREK-1 (GenBank Accession Number: NM #001017424), a type of human-derived K2P channel, in pcDNA3.1(+) and inserting it in the previously prepared Kir 2.1 #mutated Nav cells. […]

hSK4 = biological target: T3, hSK4 (Homo sapiens, UniProt O15554); assay: Cell death assay in SK4 test cells (Kir 2.1+IFM/QQQ+SK4 cells); assay type: cell-based; conditions: in the presence of 100 nM Ca ion
T3 construct: expressed in transfected cells; host or cells: HEK293 Kir 2.1 + mutated Nav cells, transient expression via baculovirus vector
Text: as §1

hTASK-3 = biological target: T4, hTASK-3 (Homo sapiens, UniProt Q9NPC2); assay: Cell death assay in TASK-3 test cells (hTASK-3 transiently expressing Kir 2.1#mutated Nav cells); assay type: cell-based; conditions: 200 μM Ba ion
T4 construct: expressed in transfected cells; host or cells: HEK293 Kir 2.1 + mutated Nav cells, transient expression via baculovirus vector
Text: Sf-900 III SFM (Thermo Fisher Scientific) was used for the culture medium for baculovirus vector production, and Dulbecco's Modified Eagle Medium (D-MEM) culture medium supplemented with 10% fetal bovine serum (FBS) was used as the culture medium for the test cells.

Sequence of TASK-1 (O14649 whole entry, species assumed): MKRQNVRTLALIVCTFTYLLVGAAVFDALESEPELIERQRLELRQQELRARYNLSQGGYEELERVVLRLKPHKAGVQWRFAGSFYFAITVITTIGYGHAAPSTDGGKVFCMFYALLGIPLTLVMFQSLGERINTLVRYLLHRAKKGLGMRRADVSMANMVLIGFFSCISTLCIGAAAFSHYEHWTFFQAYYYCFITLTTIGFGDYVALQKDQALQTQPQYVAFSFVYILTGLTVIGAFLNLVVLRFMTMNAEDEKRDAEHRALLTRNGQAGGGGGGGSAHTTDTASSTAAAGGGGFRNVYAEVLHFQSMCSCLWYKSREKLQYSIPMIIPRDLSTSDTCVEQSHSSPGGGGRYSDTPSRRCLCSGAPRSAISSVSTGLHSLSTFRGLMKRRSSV
T4 sequence (Q9NPC2 whole entry): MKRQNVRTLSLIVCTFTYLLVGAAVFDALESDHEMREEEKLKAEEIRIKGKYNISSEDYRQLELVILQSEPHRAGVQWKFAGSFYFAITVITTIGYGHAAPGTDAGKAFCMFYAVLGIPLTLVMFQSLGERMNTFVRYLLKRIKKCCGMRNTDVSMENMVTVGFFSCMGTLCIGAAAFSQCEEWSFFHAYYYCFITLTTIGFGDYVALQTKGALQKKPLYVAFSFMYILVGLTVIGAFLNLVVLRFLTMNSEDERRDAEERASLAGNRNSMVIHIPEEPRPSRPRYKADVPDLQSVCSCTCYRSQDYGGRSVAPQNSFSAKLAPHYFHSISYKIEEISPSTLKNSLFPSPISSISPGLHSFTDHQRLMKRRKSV

ML365
IC50 (TASK-1): 12 nM | induction of cell death by inhibitor (hTASK-1; in the presence of 200 μM Ba ion): cell death was observed in a concentration-dependent regime | concentration above which a sharp increase in the induction of cell death occurred (hTASK-1; in the presence of Ba ion): > 11.5 nM

c1cc2cc(c1)C[n+]1ccc(c3ccccc31)NCc1ccc(cc1)CNc1cc[n+](c3ccccc13)C2 [UCL1684]
effect of inhibitor on NS309-mediated inhibition of cell death (hSK2; added together with NS309, 100 nM Ca ion): the NS309-mediated inhibition of cell death was extinguished

Nc1ncnc2c1nc(Br)n2[C@@H]1O[C@@H]2COP(=O)(O)O[C@H]2[C@H]1O [8-Br-cAMP]
cell death on supply of TREK-1 inhibitor (hTREK-1; in the presence of 200 μM Ba ion, approximately 12 hours, MTT method): Cell death was observed

CCn1c(=O)[nH]c2cc(Cl)c(Cl)cc21 [DCEBIO, 5,6-dichloro-1-ethyl-1,3-dihydro-2H-benzimidazole-2-one]
cell death of SK4 test cells on addition of activator (hSK4): cell death of the SK4 test cells was inhibited

[Ba+2].[Cl-].[Cl-] [Ba ion, BaCl2]
cell death with Ba ion alone (hTREK-1; 200 μM Ba ion, TREK-1 test cells): cell death was not produced | cell death with Ba ion alone (hTASK-3): cell death was not produced | cell death with Ba ion alone (hTASK-1; 200 μM Ba ion): cell death was not produced

O=C1Nc2c(ccc(Cl)c2Cl)C1=NO [NS309, 3-oxime-6,7-dichloro-1H-indole-2,3-dione]
cell death of SK2 test cells on addition of activator (hSK2; in the presence of 100 nM Ca ion): cell death of the SK2 test cells was inhibited
